Measurements as given in ChEMBL document CHEMBL1201862, “PubChem BioAssay data set” (2004).
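Five compound concentrations were applied to cells in 96-well plates for 48 hours; endpoints were derived by simple linear interpolation of the resulting dose-response curve. Here, GI50 denotes the concentration required for 50% inhibition of growth.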 Active and inactive are the calls of the source. Cut-off read from the data, not from the text of the source: active = GI50 up to about 1.1 µM and inactive = higher.

Legend:
Test in all cases: NCI tumour cell line growth inhibition, 48 h
M19-MEL = tested on: M19-MEL
DMS-114 = tested on: DMS-114
NCI-H460 = tested on: NCI-H460
NCI-H522 = tested on: NCI-H522
DMS-273 = tested on: DMS-273
U-251 = tested on: U-251
KM12 = tested on: KM12
XF498 = tested on: XF498
A549 = tested on: A549
LXFL 529 = tested on: LXFL 529
NCI-H23 = tested on: NCI-H23
EKVX = tested on: EKVX
HOP-62 = tested on: HOP-62
HCC 2998 = tested on: HCC 2998
M14 = tested on: M14
CAKI-1 = tested on: CAKI-1

CN(C)CCCNC(=O)c1cccc2ccccc12
GI50 (M19-MEL): > 10 µM (inactive) | GI50 (DMS-114): > 100 µM (inactive) | GI50 (NCI-H460): > 100 µM (inactive) | GI50 (NCI-H522): > 100 µM (inactive) | GI50 (DMS-273): > 100 µM (inactive) | GI50 (U-251): > 100 µM (inactive) | GI50 (KM12): > 100 µM (inactive) | GI50 (XF498): > 100 µM (inactive) | GI50 (A549): > 100 µM (inactive) | GI50 (LXFL 529): > 100 µM (inactive) | GI50 (NCI-H23): > 100 µM (inactive)

O=S(=O)(/C=C/c1ccc(F)cc1)Cc1ccc(CS(=O)(=O)/C=C/c2ccc(F)cc2)cc1
GI50 (EKVX): > 100 µM (inactive) | GI50 (HOP-62): > 100 µM (inactive) | GI50 (M19-MEL): > 100 µM (inactive) | GI50 (DMS-114): > 100 µM (inactive) | GI50 (NCI-H460): > 100 µM (inactive) | GI50 (NCI-H522): > 100 µM (inactive) | GI50 (DMS-273): > 100 µM (inactive) | GI50 (U-251): > 100 µM (inactive) | GI50 (KM12): > 100 µM (inactive) | GI50 (XF498): > 100 µM (inactive) | GI50 (A549): > 100 µM (inactive) | GI50 (LXFL 529): > 100 µM (inactive) | GI50 (HCC 2998): > 100 µM (inactive) | GI50 (M14): > 100 µM (inactive) | GI50 (CAKI-1): > 100 µM (inactive) | GI50 (NCI-H23): > 100 µM (inactive)

COc1ccccc1NC(=O)C1=C(C)NC(C)=C(C(=O)Nc2ccccc2OC)C1c1ccccc1OC
GI50 (EKVX): > 100 µM (inactive) | GI50 (HOP-62): > 100 µM (inactive) | GI50 (M19-MEL): > 100 µM (inactive) | GI50 (DMS-114): 85.5 µM (inactive) | GI50 (NCI-H460): 97.3 µM (inactive) | GI50 (NCI-H522): > 100 µM (inactive) | GI50 (DMS-273): > 100 µM (inactive) | GI50 (U-251): > 100 µM (inactive) | GI50 (KM12): > 100 µM (inactive) | GI50 (A549): > 100 µM (inactive) | GI50 (LXFL 529): > 100 µM (inactive) | GI50 (HCC 2998): > 100 µM (inactive) | GI50 (M14): > 100 µM (inactive) | GI50 (CAKI-1): > 100 µM (inactive) | GI50 (NCI-H23): > 100 µM (inactive)

O=C(CC(=O)N1N=C(c2ccccc2)C(/N=N/c2ccc(Cl)cc2)C1=O)Nc1ccccc1Cl (stereo not given)
GI50 (EKVX): 27.6 µM (inactive) | GI50 (HOP-62): 20.1 µM (inactive) | GI50 (M19-MEL): 51.3 µM (inactive) | GI50 (DMS-114): 90.6 µM (inactive) | GI50 (NCI-H460): 42.1 µM (inactive) | GI50 (NCI-H522): 30.3 µM (inactive) | GI50 (DMS-273): 32.2 µM (inactive) | GI50 (U-251): 24.5 µM (inactive) | GI50 (KM12): 33.8 µM (inactive) | GI50 (XF498): 35.7 µM (inactive) | GI50 (A549): 13.2 µM (inactive) | GI50 (LXFL 529): 26.7 µM (inactive) | GI50 (HCC 2998): 68.7 µM (inactive) | GI50 (M14): 28.1 µM (inactive) | GI50 (CAKI-1): 19.5 µM (inactive) | GI50 (NCI-H23): 29.4 µM (inactive)

Cc1cc(C)[n+](CCOc2ccc(/C(=C(/Cl)c3ccccc3)c3ccccc3)cc2)c(C)c1.[O-][Cl+3]([O-])([O-])[O-]
GI50 (EKVX): 0.887 µM (active) | GI50 (HOP-62): 2.37 µM (inactive) | GI50 (M19-MEL): 0.495 µM (active) | GI50 (DMS-114): 1.29 µM (inactive) | GI50 (NCI-H460): 1.25 µM (inactive) | GI50 (NCI-H522): 0.39 µM (active) | GI50 (DMS-273): 0.366 µM (active) | GI50 (U-251): 0.685 µM (active) | GI50 (KM12): 0.697 µM (active) | GI50 (XF498): 0.256 µM (active) | GI50 (A549): 1.55 µM (inactive) | GI50 (LXFL 529): 0.506 µM (active) | GI50 (HCC 2998): 0.701 µM (active) | GI50 (M14): 2 µM (inactive) | GI50 (CAKI-1): 4.49 µM (inactive) | GI50 (NCI-H23): 0.869 µM (active)

CCC1CCc2c(c(=O)oc3c2cc(OC)c2cccc(OC)c23)C1 (stereo not given)
GI50 (EKVX): > 100 µM (inactive) | GI50 (HOP-62): 60.5 µM (inactive) | GI50 (M19-MEL): 55.8 µM (inactive) | GI50 (NCI-H460): 51.1 µM (inactive) | GI50 (NCI-H522): 36.6 µM (inactive) | GI50 (DMS-273): 42.6 µM (inactive) | GI50 (U-251): 74.3 µM (inactive) | GI50 (KM12): 47.8 µM (inactive) | GI50 (XF498): 29.5 µM (inactive) | GI50 (A549): 71 µM (inactive) | GI50 (LXFL 529): 44 µM (inactive) | GI50 (HCC 2998): 77.1 µM (inactive) | GI50 (M14): > 100 µM (inactive) | GI50 (CAKI-1): > 100 µM (inactive) | GI50 (NCI-H23): 57.1 µM (inactive)

CN1C(=O)CNS1(=O)=O
GI50 (HOP-62): > 100 µM (inactive) | GI50 (DMS-114): > 100 µM (inactive) | GI50 (NCI-H460): > 100 µM (inactive) | GI50 (DMS-273): > 100 µM (inactive) | GI50 (U-251): > 100 µM (inactive) | GI50 (KM12): > 100 µM (inactive) | GI50 (XF498): > 100 µM (inactive) | GI50 (A549): > 100 µM (inactive) | GI50 (LXFL 529): > 100 µM (inactive) | GI50 (HCC 2998): > 100 µM (inactive) | GI50 (M14): > 100 µM (inactive) | GI50 (NCI-H23): > 100 µM (inactive)

O=C(O)c1ccc(NC(=O)C2C(=O)C(=O)N(c3ccc(C(=O)O)cc3)C2=O)cc1 (stereo not given)
GI50 (EKVX): > 100 µM (inactive) | GI50 (HOP-62): > 100 µM (inactive) | GI50 (M19-MEL): > 100 µM (inactive) | GI50 (NCI-H460): > 100 µM (inactive) | GI50 (NCI-H522): > 100 µM (inactive) | GI50 (DMS-273): > 100 µM (inactive) | GI50 (U-251): > 100 µM (inactive) | GI50 (KM12): > 100 µM (inactive) | GI50 (XF498): > 100 µM (inactive) | GI50 (A549): > 100 µM (inactive) | GI50 (HCC 2998): > 100 µM (inactive) | GI50 (CAKI-1): > 100 µM (inactive) | GI50 (NCI-H23): > 100 µM (inactive)

CCCO/N=[N+](\[O-])N(CC)CC
GI50 (EKVX): > 100 µM (inactive) | GI50 (HOP-62): > 100 µM (inactive) | GI50 (NCI-H460): > 100 µM (inactive) | GI50 (NCI-H522): > 100 µM (inactive) | GI50 (DMS-273): > 100 µM (inactive) | GI50 (U-251): > 100 µM (inactive) | GI50 (KM12): > 100 µM (inactive) | GI50 (XF498): > 100 µM (inactive) | GI50 (A549): > 100 µM (inactive) | GI50 (LXFL 529): > 100 µM (inactive) | GI50 (HCC 2998): > 100 µM (inactive) | GI50 (M14): > 100 µM (inactive) | GI50 (NCI-H23): > 100 µM (inactive)

O=C(O)C(CS)NCc1c2ccccc2nc2ccccc12 (stereo not given)
GI50 (EKVX): 38.5 µM (inactive) | GI50 (M19-MEL): 34.9 µM (inactive) | GI50 (NCI-H460): 42.5 µM (inactive) | GI50 (NCI-H522): 25 µM (inactive) | GI50 (DMS-273): 27 µM (inactive) | GI50 (U-251): 92 µM (inactive) | GI50 (KM12): 26.9 µM (inactive) | GI50 (XF498): 15.5 µM (inactive) | GI50 (A549): 91.6 µM (inactive) | GI50 (LXFL 529): 39.7 µM (inactive) | GI50 (HCC 2998): 40.6 µM (inactive) | GI50 (CAKI-1): 34.4 µM (inactive) | GI50 (NCI-H23): 37.8 µM (inactive)
